Entries after “also recorded” stand apart in the source; their conditions may differ. Where two headings read alike, the source gives them in different places.
Columns and labels:
[1] = test system: porcine aortic smooth muscle cells (SMC); assay: Inhibition of cell proliferation and recovery, porcine SMC; assay type: cell-based; conditions: for inhibitory effect on porcine SMC growth (in words) / toxicity on SMC / inhibition at 10 µM: 10 μM; for inhibitory effect on porcine SMC growth (in words): FIGS. 3-7; for toxicity on SMC / reversibility of the inhibitory effect / recovery of SMC growth after washout: porcine SMC; for inhibition at 10 µM: Sus scrofa; for reversibility of the inhibitory effect / recovery of SMC growth after washout: cultures washed, cells allowed to recover
Experimental: Smooth muscle cells (SMC) were obtained under aseptic conditions from porcine abdominal aortas, and human internal mammary arteries (IMA). Specimens from the operating room were transferred on ice to the tissue culture room. Each artery was cut open and the endothelial surface mechanically scraped. […] The tissue fragments were then placed in an incubator at 37° C. under 9% CO2 atmosphere until SMC outgrowth was detected (typically within 3-7 days). […] For experiments testing the effect of tyrphostins on growth inhibition and recovery (see below), SMC from passages 1-3 were replated in 15 mm wells pretreated with 3 μg/cm^2 fibronectin (Biological Industries, Kibbutz Beit Haemek, Israel) at 15,000 cells/well.
Inhibition of cell proliferation and recovery: Monolayer cell growth inhibition and recovery experiments were repeated 3 or 4 times. Each experiment was performed in triplicate. […] Cultures were treated with a tyrphostin (10 μM) dissolved in 0.1% DMSO on days 1 and 3. On day 6, cultures were washed and the cells allowed to recover. Typically cells were counted on days 3 and 5 for inhibition, and on days 7, 10 and 15 for recovery, other schedules were also employed as reported below.

[2] = test system: PDGFR; assay: PDGFR autophosphorylation, isolated membranes or intact Swiss 3T3 cells; assay type: biochemical; conditions: read-out: IC50 (50% inhibition of phosphorylation) PDGFR
Experimental: Assay of receptor autophosphorylation in intact 3T3 cells: Confluent Swiss 3T3 cells in 24-well plates (Nunc) were incubated for 20-24 hours in serum-free DMEM. Subsequently, tyrphostins were added at concentrations ranging from 0 to 100 μM (final DMSO concentration, 0.5%) and the incubation was continued for 6-8 hours. The cells were then stimulated with 100 ng/ml PDGF-BB for 5 min at room temperature or 600 ng/ml EGF for 2.5 min on ice. The growth factor treatment was terminated by washing twice with ice-cold PBS and the cells were scraped off the wells in 60 μl lysis buffer containing 20 mM Hepes (pH 7.4), 150 mM NaCl, 1% Triton X-100, 10 mM sodium pyrophosphate, 50 mM NaF, 2 mM sodium-o-vanadate, 20 μm zinc acetate, 10 nM EDTA, 2 mM [ethylenebis(oxyethilenenitrilo)] tetraacetic acid, 1 mM phenylmethylsulfonyl fluoride, and 5 μg/ml leupeptin.
The cell lysates were clarified by centrifugation (cooled microfuge, 17,000 rpm, 15 min) and analyzed by SDS-PAGE (6.5% gels) and immunoblotting with anti-phosphotyrosine antibodies (either PY 20, ICN, and subsequently a peroxidase-coupled secondary antibody, or RC20-peroxidase conjugate, Affinity, Nottingham, United Kingdom). The blots were developed with a chemiluminescence detection system (Western Light, Tropix, or ECL, Amersham). In some experiments PDGF receptors were immunoprecipitated with PDGF-R3 or DIG-1 antibodies as described prior to the analysis by immunoblotting with anti-phosphotyrosine antibodies.
Membrane autophosphorylation assays: Membranes were prepared from confluent cultures of Swiss 3T3 cells as described. For measuring receptor autophosphorylation, 10 μg membrane protein per assay were incubated for 20 min on ice in the presence of 1.2 μg/ml EGF or 2 μg/ml PDGF, or both; 50 mM Hepes (pH 7.5); and 3 mm MnCl2 (final concentrations) in a volume of 45 μl. […] For quantification of radioactivity in electrophoresis gels, a Phospho-Imager (Molecular Dynamics, Fuji, or Bio-Rad) was used according to the instructions of the manufacturers. […]

[3] = target: T1, PDGF β-receptor (Sus scrofa, UniProt F1RL75); assay: PDGF induced PDGFR autophosphorylation in intact SMC cells; assay type: cell-based; conditions: porcine arterial SMC; for inhibition of PDGF-BB induced PDGF β-receptor tyrosine-phosphorylation: tyrphostin 10 μM, 60 min preincubation, PDGF-BB 100 ng/ml
T1 construct: PDGF-BB stimulated; immunoprecipitated with PDGF beta-receptor specific antiserum R3
T1 sequence (F1RL75 109-1181): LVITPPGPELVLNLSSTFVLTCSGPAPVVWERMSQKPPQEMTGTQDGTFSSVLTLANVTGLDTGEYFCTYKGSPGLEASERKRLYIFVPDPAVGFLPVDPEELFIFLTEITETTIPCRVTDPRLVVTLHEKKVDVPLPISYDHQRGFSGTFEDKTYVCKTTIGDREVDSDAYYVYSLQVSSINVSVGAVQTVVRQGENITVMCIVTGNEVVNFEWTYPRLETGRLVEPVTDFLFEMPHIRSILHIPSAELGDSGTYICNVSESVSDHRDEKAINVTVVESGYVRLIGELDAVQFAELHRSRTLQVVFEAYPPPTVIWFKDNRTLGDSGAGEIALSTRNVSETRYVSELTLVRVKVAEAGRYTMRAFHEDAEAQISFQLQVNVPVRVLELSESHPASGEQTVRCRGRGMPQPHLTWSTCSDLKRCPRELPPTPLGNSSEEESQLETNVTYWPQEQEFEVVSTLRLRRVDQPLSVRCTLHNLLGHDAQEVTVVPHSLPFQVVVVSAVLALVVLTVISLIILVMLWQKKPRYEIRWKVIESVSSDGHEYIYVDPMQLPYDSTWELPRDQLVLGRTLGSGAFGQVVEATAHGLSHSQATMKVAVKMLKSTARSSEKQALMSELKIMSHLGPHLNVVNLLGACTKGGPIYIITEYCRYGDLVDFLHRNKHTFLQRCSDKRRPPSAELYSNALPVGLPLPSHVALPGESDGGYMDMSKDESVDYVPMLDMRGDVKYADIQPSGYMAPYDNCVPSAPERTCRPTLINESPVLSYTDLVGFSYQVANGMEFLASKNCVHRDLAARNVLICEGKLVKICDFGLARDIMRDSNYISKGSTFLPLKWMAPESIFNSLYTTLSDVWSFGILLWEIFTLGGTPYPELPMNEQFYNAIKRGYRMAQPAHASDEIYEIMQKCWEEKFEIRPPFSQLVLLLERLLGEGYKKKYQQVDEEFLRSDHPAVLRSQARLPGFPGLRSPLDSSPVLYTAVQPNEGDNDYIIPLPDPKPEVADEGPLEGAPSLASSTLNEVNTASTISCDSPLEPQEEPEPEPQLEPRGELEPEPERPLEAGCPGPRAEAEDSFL
Experimental: Effect of tyrphostins on PDGF induced PDGFR autophosphorylation in intact SMC cells: Subconfluent porcine arterial smooth muscle cells, cultivated in Dulbecco's modified Eagle's medium (DMEM) supplemented with 15% fetal calf serum (FCS), were synchronized for 20 hours in a medium containing 2% FCS. […] After stimulation, the cells were solubilized in Nonidet P-40 (1%) containing lysis buffer.
The analysis of PDGF p-receptor phosphorylation was performed as follows. Cell lysates were subjected to immunoprecipitation using the PDGF β-receptor specific antiserum R3 [5]. The percipitates were subjected to polyacrylamide (7.5%) gel electrophoresis in presence of sodium deducyl sulfate (SDS-PAGE) and were thereafter blotted onto a nitrocellulose membrane (Hybond C-EXTRA, Amersham). Phosphorylated proteins were detected by immunoblotting using the horseradish-peroxidase conjugated phosphotyrosine antibody RC20H (Transduction Laboratories), followed by chemoluminescence-based detection (ECL, Amersham) and autoradiography.
Detection of receptor proteins was performed as follows. Cell lysates were subjected to immunoprecipitation using the PDGF β-receptor specific antiserum R3 [5], as described above, and the percipitates washed three times and thereafter subjected to SDS-PAGE (7.5%) and blotting onto a nitrocellulose membrane (Hybond C-EXTRA, Amersham). Receptor proteins were detected by immunoblotting using the horseradish-peroxidase conjugated donkey anti-rabbit antibody (Amersham), followed by chemoluminescence-based detection (ECL, Amersham) and autoradiography.

[4] = 120 h, by day 5 (day given for AG1295 and AG1992), read-out: reduction in SMC count / inhibition of SMC growth over control
[5] = Table 2, read-out: mean reduction in SMC count compared to control cells (maximal inhibition in SMC growth)

Row | Structure (SMILES) | inhibitory effect on porcine SMC growth (in words) [1] | toxicity on SMC [1] | inhibition at 10 µM [1, 4] [%] | inhibition at 10 µM ([1]; FIG. 6 experiment, read-out: maximal inhibitory effect on porcine SMC proliferation) [%] | inhibition at 10 µM [1, 5] [%] | reversibility of the inhibitory effect / recovery of SMC growth after washout [1] | IC50 [2] [µM] | level of PDGF β-receptor protein present in the cells [3] | inhibition of PDGF-BB induced PDGF β-receptor tyrosine-phosphorylation [3] | inhibition at 10 µM ([1]; FIG. 7 experiment, read-out: maximal inhibitory effect on porcine SMC proliferation) [%]
1 | Cc1nc2cc3nc(-c4ccccc4)cnc3cc2n1C [AG1851] | very potent growth inhibition effect; also recorded: most effective inhibitory response; also recorded: highly effective in blocking proliferation | without having a substantial toxic effect; also recorded: low lasting toxicity | 79 | 78 | 79 | completely reversible; also recorded: normal cell growth appeared immediately after treatment with AG1851 was discontinued | 5 | without affecting the level | completely inhibited | 
2 | Cc1nc2cc3nc(-c4cccs4)cnc3cc2n1C [AG1992] | very potent growth inhibition effect; also recorded: very effective proliferation inhibitors | low lasting toxicity | 87 |  | 87 | completely reversible | 1 | without affecting the level | completely inhibited | 89
